Laboratory results: ChEMBL document CHEMBL1157919, “Optimization of 7-alkene-3-quinolinecarbonitriles as Src kinase inhibitors” (Bioorg Med Chem Lett, 2010)

Key:
[1] = Plasma concentration in nude mouse at 50 mg/kg, po after 24 hrs; format: ADME, organism-based; set-up: dose 50 mg/kg, route oral
[2] = biological target: T1, Proto-oncogene tyrosine-protein kinase Src (Homo sapiens, UniProt P12931)
Description: Inhibition of human recombinant Src after 70 mins by FRET assay

[3] = Half life in rat liver microsomes; format: ADME, Microsome
[4] = biological target: Serine/threonine-protein kinase mTOR (Homo sapiens, UniProt P42345); test: Inhibition of mTOR
[5] = Half life in nude mouse microsomes; format: ADME, Microsome
[6] = Inhibition of IKK
[7] = biological target: Mitogen-activated protein kinase kinase kinase 8 (Homo sapiens, UniProt P41279); test: Inhibition of TPL2
Sequence of Mitogen-activated protein kinase kinase kinase 8 (P41279 whole entry): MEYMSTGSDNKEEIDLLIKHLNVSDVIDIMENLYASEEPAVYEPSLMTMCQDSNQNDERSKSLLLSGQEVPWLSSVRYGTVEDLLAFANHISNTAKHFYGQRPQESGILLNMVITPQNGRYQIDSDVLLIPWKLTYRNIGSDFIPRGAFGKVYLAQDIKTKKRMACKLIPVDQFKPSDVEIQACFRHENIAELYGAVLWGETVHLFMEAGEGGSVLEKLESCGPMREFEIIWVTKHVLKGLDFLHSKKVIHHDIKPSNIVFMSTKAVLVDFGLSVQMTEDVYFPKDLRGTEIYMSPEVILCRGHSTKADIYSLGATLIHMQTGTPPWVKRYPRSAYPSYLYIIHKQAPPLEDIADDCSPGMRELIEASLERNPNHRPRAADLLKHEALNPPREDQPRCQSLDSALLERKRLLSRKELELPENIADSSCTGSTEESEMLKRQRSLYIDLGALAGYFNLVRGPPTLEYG

[8] = Inhibition of IGFR
[9] = Half life in human microsomes; format: ADME, Microsome
HT-29 = test: In vivo antitumor activity against human HT-29 cells at 150 mg/kg, po qd for 14 days measured on day 21; format: functional
[10] = biological target: RAC-alpha serine/threonine-protein kinase (Homo sapiens, UniProt P31749); test: Inhibition of AKT
Sequence of RAC-alpha serine/threonine-protein kinase (P31749 whole entry): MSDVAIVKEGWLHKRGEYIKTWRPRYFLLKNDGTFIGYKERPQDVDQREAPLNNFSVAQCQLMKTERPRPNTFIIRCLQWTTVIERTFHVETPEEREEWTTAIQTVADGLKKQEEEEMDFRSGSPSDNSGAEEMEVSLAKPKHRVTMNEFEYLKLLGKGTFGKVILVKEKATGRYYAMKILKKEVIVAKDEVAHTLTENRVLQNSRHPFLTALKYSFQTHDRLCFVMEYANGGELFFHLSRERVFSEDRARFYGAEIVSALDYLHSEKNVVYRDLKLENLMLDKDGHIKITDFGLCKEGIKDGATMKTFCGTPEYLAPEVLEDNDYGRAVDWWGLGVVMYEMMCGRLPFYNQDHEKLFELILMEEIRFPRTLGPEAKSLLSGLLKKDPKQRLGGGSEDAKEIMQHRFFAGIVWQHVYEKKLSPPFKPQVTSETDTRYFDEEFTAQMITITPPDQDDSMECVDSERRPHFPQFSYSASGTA

[11] = biological target: Tyrosine-protein kinase ABL1 (Homo sapiens, UniProt P00519); test: Inhibition of Abl
Sequence of Tyrosine-protein kinase ABL1 (P00519 whole entry): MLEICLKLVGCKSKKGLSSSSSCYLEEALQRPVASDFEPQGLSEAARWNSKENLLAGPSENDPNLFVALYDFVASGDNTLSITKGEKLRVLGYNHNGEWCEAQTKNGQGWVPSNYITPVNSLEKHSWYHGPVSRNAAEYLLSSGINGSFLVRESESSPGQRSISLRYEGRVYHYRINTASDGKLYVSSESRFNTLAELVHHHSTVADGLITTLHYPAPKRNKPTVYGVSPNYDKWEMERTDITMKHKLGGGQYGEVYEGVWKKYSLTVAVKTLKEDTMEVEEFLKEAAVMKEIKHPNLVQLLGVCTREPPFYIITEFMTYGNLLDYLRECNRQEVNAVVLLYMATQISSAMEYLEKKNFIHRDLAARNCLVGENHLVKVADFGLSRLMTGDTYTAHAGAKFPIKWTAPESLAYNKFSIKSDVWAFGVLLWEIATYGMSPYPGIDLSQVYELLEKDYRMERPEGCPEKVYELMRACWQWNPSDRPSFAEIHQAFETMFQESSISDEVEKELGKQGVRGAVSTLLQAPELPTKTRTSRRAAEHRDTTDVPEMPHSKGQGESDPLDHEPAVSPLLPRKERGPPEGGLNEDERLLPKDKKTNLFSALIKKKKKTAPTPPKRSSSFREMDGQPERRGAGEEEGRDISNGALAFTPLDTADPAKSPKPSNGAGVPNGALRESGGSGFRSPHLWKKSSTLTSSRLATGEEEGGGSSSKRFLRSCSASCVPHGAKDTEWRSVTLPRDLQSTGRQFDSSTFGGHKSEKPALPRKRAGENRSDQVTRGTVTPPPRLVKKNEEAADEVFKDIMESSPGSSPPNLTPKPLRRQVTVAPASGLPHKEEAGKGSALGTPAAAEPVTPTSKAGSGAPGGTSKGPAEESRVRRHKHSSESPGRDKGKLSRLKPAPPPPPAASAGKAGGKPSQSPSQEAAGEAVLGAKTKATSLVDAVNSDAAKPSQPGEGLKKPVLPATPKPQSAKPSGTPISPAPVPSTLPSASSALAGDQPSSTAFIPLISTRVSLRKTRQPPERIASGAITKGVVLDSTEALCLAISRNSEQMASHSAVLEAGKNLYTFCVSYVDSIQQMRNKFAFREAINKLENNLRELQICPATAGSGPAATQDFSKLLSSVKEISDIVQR

[12] = biological target: T1, Proto-oncogene tyrosine-protein kinase Src; test: Inhibition of human recombinant Src at 10 uM after 70 mins by FRET assay

T1 sequence (P12931 2-536 limits assumed): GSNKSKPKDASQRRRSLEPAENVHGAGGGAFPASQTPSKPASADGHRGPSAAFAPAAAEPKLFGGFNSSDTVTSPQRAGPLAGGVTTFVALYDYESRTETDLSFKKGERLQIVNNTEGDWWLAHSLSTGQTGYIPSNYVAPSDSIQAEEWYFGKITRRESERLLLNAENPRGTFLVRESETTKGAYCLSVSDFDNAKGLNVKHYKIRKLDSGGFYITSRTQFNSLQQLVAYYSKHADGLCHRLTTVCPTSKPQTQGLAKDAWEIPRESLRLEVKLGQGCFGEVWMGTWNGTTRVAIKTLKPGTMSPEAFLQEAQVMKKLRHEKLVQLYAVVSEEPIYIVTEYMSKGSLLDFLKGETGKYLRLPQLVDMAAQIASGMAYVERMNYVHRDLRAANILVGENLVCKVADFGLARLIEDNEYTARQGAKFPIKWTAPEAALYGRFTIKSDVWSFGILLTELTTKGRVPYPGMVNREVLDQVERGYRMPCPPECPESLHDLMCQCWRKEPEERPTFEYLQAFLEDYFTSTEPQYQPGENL

For `COc1cc(Nc2c(C#N)cnc3cc(/C=C/c4cccc(CN(C)C)n4)c(OC)cc23)c(Cl)cc1Cl`, which concentration at 24 h [1] is on record?
Its concentration at 24 h is 28 ng/mL.

What about the IC50 [2] of the same compound?
The IC50 was 2.2 nM.

With `COc1cc(Nc2c(C#N)cnc3cc(/C=C/c4cc(CN(C)C)ccn4)c(OC)cc23)c(Cl)cc1Cl` as the compound, how does the IC50 [2] read?
Its IC50 is 6.8 nM.

With `COc1cc(Nc2c(C#N)cnc3cc(/C=C/c4ccc(CN(C)C)cc4)c(OC)cc23)c(Cl)cc1Cl` as the compound, how does the concentration at 24 h [1] read?
The concentration at 24 h was 10 ng/mL.

What about the IC50 [2] of the same compound?
Its IC50 is 2.4 nM.

With `COc1cc(Nc2c(C#N)cnc3cc(/C=C/CCCCCCCCCN4CCOCC4)c(OC)cc23)c(Cl)cc1Cl` as the compound, how does the IC50 [2] read?
Its IC50 is 130 nM.

For `COc1cc(Nc2c(C#N)cnc3cc(/C=C/c4ccc(CN(C)C)cn4)c(OC)cc23)c(Cl)cc1Cl`, which concentration at 24 h [1] is on record?
The concentration at 24 h was 36 ng/mL.

And the IC50 [2]?
Its IC50 is 2.2 nM.

Which results are given for `COc1cc(Nc2c(C#N)cnc3cc(/C=C/CCN(C)C)c(OC)cc23)c(Cl)cc1Cl`?
half-life [3]: > 30 min; IC50 [2]: 2.5 nM

Which IC50 [2] does the source give for `COc1cc(Nc2c(C#N)cnc3cc(/C=C/CCCN4CCOCC4)c(OC)cc23)c(Cl)cc1Cl` here?
The IC50 was 5.4 nM.

With `COc1cc(Nc2c(C#N)cnc3cc(/C=C/CCN4CCOCC4)ccc23)c(Cl)cc1Cl` as the compound, how does the IC50 [2] read?
Its IC50 is 15 nM.

With `CCN1CCN(CC/C=C/c2cc3ncc(C#N)c(Nc4cc(OC)c(Cl)cc4Cl)c3cc2OC)CC1` as the compound, how does the half-life [3] read?
Its half-life is over 30 min.

What about the IC50 [2] of the same compound?
The IC50 was 1.7 nM.

Which half-life [3] does the source give for `COc1cc(Nc2c(C#N)cnc3cc(/C=C/CCN4CCCCC4)c(OC)cc23)c(Cl)cc1Cl` here?
Its half-life is over 30 min.

What about the IC50 [2] of the same compound?
The IC50 was 2.6 nM.

What does the source list for `COc1cc(Nc2c(C#N)cnc3cc(/C=C/CCN4CCN(C)CC4)c(OC)cc23)c(Cl)cc1Cl`?
half-life [3]: 10 min; IC50 [4]: > 10 µM; half-life [5]: 33 min; IC50 [6]: > 10 µM; IC50 [7]: > 10 µM; IC50 [8]: > 10 µM; IC50 [2]: 2.1 nM; half-life [9]: 11 min; T/C (HT-29): 0.36; IC50 [10]: > 10 µM; IC50 [11]: 0.4 nM

Which IC50 [2] does the source give for `COc1cc(Nc2c(C#N)cnc3cc(/C=C/CN4CCOCC4)c(OC)cc23)c(Cl)cc1Cl` here?
The IC50 was 8.7 nM.

Which IC50 [2] does the source give for `COc1cc(Nc2c(C#N)cnc3cc(/C=C/c4cccc(CN(C)C)c4)c(OC)cc23)c(Cl)cc1Cl` here?
The IC50 was 3 nM.

With `COc1cc(Nc2c(C#N)cnc3cc(/C=C/CCCCN4CCOCC4)c(OC)cc23)c(Cl)cc1Cl` as the compound, how does the IC50 [2] read?
The IC50 was 18 nM.

With `COc1cc(Nc2c(C#N)cnc3c(/C=C/CCN4CCOCC4)cccc23)c(Cl)cc1Cl` as the compound, how does the inhibition [12] read?
Its inhibition is 52%.

With `COc1cc(Nc2c(C#N)cnc3cc(/C=C/CCN4CCOCC4)c(OC)cc23)c(Cl)cc1Cl` as the compound, how does the IC50 [2] read?
Its IC50 is 4.8 nM.

With `N#Cc1cnc2ccc(/C=C/CCN3CCOCC3)cc2c1Nc1ccc(Cl)cc1Cl` as the compound, how does the IC50 [2] read?
Its IC50 is 1200 nM.

With `N#Cc1cnc2cc(/C=C/CCN3CCOCC3)ccc2c1Nc1ccc(Cl)cc1Cl` as the compound, how does the IC50 [2] read?
Its IC50 is 41 nM.

Which concentration at 24 h [1] does the source give for `COc1cc(Nc2c(C#N)cnc3cc(OCCCN4CCN(C)CC4)c(OC)cc23)c(Cl)cc1Cl` [BOSUTINIB] here?
Its concentration at 24 h is 40 ng/mL.

And the T/C (HT-29)?
The T/C was 0.43.

For `COc1cc(Nc2c(C#N)cnc3ccc(/C=C/CCN4CCOCC4)cc23)c(Cl)cc1Cl`, which IC50 [2] is on record?
The IC50 was 340 nM.
